Source: patent US20090054376A1, “BENZOFURAN DERIVATIVES WITH THERAPEUTIC ACTIVITIES” (Pharmos Corporation, priority 2005, published 2009)

Legend:
[1] = test system: IL-10; experiment: Gene expression in LPS activated RAW 264.7 macrophages, IL-10; assay type: cell-based, mouse; conditions: RAW 264.7, 10 μM, LPS 1 μg/ml, RNA 3 hrs after activation
Procedure: RAW 264.7 macrophages, a mouse cell line (ATCC # TIB 71), were grown in Dulbecco's modified Eagle's medium (DMEM) with 4 mM L-glutamine adjusted to contain 1.5 g/L sodium bicarbonate, 4.5 g/L glucose, and 10% heat inactivated fetal bovine serum. Cells were grown in tissue culture flasks and seeded at appropriate density into 6 wells tissue culture plates. Four million Raw cells in half a milliliter were stimulated with 1 μg/ml LPS E. coli 055:B5 (DIFCO Laboratories). The mouse macrophages were pre-treated for one hour with controls or 10 μM of test compounds, and later on activated with LPS. RNA samples were extracted from the cells 3 hrs after activation and gene expression levels were analyzed by real-time RT-PCR. In parallel, supernatants were collected and secretion of inflammatory mediators was analyzed using ELISA techniques according to the instructions of the kit manufacturer.
Total RNA is prepared using SV total RNA isolation system (Promega). The cells were homogenized in lysis buffer. […] RNA concentrations were determined using GeneQuant II (Pharmacia-Amersham). […] Quantitative real-time RT-PCR included 1 μl of the cDNA, 300 nM of the appropriate forward and reverse primers (according to the gene monitored) and 7.5 μl of the reaction mix containing buffer, nucleotides, Taq polymerase and SYBER green (SYBER Green master mix, Applied Biosystems), in a total reaction volume of 15 μl. […]

[2] = test system: TNBS induced inflammatory bowel disease; experiment: TNBS induced inflammatory bowel disease; assay type: in vivo, Female Balb/C mice; conditions: 20 mg/kg i.p. daily
Procedure: Female Balb/C mice (average body weight 20 g, Harlan, Israel) were lightly sedated and challenged rectally, by instillation with 70 μl of 2.5% TNBS (Sigma) dissolved in 50% ethanol, to induce intestinal inflammation and colitis. Animals were weighted before the beginning of the study and treatment was administered i.p. on a daily basis for six days at 20 mg/kg and volume dosage of 5 ml/kg. During the study period of up to 7 days, the following parameters were daily monitored and recorded: body weight, presence of blood in the stool and stool consistency. These findings are scored according to Table 6 [Murthy S.N. et al., Dig. Dis. Sci. 38:1722-34, 1993].
On the last day of the study, animals were euthanized. Abdomen was open and the colon was sectioned at the level of the caecum and the rectum. The colon was weighted and its length was measured. The whole column was excised, slited longitudinally, and examined under a magnifying lens. Any visible damage was recorded and scored for gross pathology according to Wong [Wong et al., J. Pharm. Exp. Ther. 274: 475-80, 1995]. Namely, a score of 0 indicates no damage, 1 indicates localized hyperemia and/or edema, 2 indicates at least two sites of hyperemia and/or edema, 3 indicates localized erosion, 4 indicates localized ulcer and 5 indicates either an erosion site or ulcer extending for more than 2 cm along the colon or at least two sites of erosion or ulcer. Finally, the entire colon was fixed in 4% formaldehyde for histopathological evaluation.
Each treatment group comprised at least seven animals. The following groups served as negative controls: naïve animals, sham animals that received 70 μl of 50% ethanol without TNBS, and TNBS challenged untreated and vehicle treated animals. A group of animals receiving 10 mg/kg sulfasalazine served as positive controls. Sulfasalazine is a standard anti-inflammatory drug used for the treatment of mild to moderate ulcerative colitis and Crohn's disease, and as adjunctive therapy in the treatment of severe ulcerative colitis. This drug is also used for the treatment of non-IBD related disorders, such as rheumatoid arthritis and ankylosing spondylitis. The recognized side effect of this medicament is its hepatotoxicity upon chronic treatment.

| SMILES | Percent inhibition of gene expression, IL-10 [1] | regained normal weight after [2] | transient loss in body weight ([2]; one day after TNBS instillation) | mortality ([2]; untreated 60%) |
| --- | --- | --- | --- | --- |
| CCCCC(C)(C)c1cc(O)c2c(c1)OC1C2CCC(C)(C)C1O (stereo not shown) [Compound C6S-7, 3-(1,1-dimethylpentyl)-7,7-dimethyl-5a,6,7,8,9,9a-hexahydro-dibenzofuran-1,6-diol] | 33% | – | – | – |
| CCCCC(C)(C)c1cc(O)c2c(c1)OC1CCCCC21 (stereo not shown) [Compound C6S-3, 3-(1,1-dimethylpentyl)-5a,6,7,8,9,9a-hexahydro-dibenzofuran-1-ol] | – | 4 days of treatment | about 5% | 7% |
